Results: patent US4281136A, “2-Alkyl-3-haloisothiazolium salts and their derivatives” (Givaudan Corporation, priority 1978, dated 1981)
Values after ≈ are worked out from the molar mass of the structure shown. Read-outs that look alike come from different tables or passages of the source.

Test system: Ps. aeruginosa
Assay: preservative for cutting oil emulsions
Format: cell-based
Conditions: for Minimum Inhibitory Concentration: listed as CH3, Cl, H; for MIC: Pseudomonas aeruginosa
Description: Various aliquots of a 6% solution of the chemical in ethanol were added to cutting oil emulsions prepared by diluting Kutwell 30 cutting oil concentrate 1 to 30 with water. These samples were inoculated with a culture of Ps. aeruginosa and incubated at 28° on a rotary shaker. At weekly intervals the samples were examined for microorganisms and then reinoculated and incubated.

[1] = 168 h, read-out: Minimum Inhibitory Concentration, cutting oil emulsion, incubation 1 week, 28°
[2] = 336 h, read-out: Minimum Inhibitory Concentration, cutting oil emulsion, incubation 2 weeks, 28°
[3] = 504 h, read-out: Minimum Inhibitory Concentration, cutting oil emulsion, incubation 3 weeks, 28°
[4] = 672 h, read-out: Minimum Inhibitory Concentration, cutting oil emulsion, incubation 4 weeks, 28°
[5] = 168 h, cutting oil emulsion, incubation 1 week, 28°, read-out: Minimum Inhibitory Concentration
[6] = 336 h, cutting oil emulsion, incubation 2 weeks, 28°, read-out: Minimum Inhibitory Concentration
[7] = 504 h, cutting oil emulsion, incubation 3 weeks, 28°, read-out: Minimum Inhibitory Concentration
[8] = 672 h, cutting oil emulsion, incubation 4 weeks, 28°, read-out: Minimum Inhibitory Concentration

SMILES	MIC [5] [µg/mL]	MIC [6] [µg/mL]	MIC [7] [µg/mL]	MIC [8] [µg/mL]	further results
C[n+]1sccc1Cl [No. 16 (Table I)]	–	–	–	–	Minimum Inhibitory Concentration (cutting oil emulsion, incubation 1 week, 28°, SbCl6): 8 µg/mL; Minimum Inhibitory Concentration (cutting oil emulsion, incubation 2 weeks, 28°, SbCl6): 16 µg/mL; Minimum Inhibitory Concentration (cutting oil emulsion, incubation 3 weeks, 28°, SbCl6): 16 µg/mL; Minimum Inhibitory Concentration (cutting oil emulsion, incubation 4 weeks, 28°, SbCl6): 16 µg/mL
C[n+]1sccc1Cl [No. 17 (Table I)]	–	–	–	–	Minimum Inhibitory Concentration (cutting oil emulsion, incubation 1 week, 28°, PF6): 32 µg/mL; Minimum Inhibitory Concentration (cutting oil emulsion, incubation 2 weeks, 28°, PF6): 32 µg/mL; Minimum Inhibitory Concentration (cutting oil emulsion, incubation 3 weeks, 28°, PF6): 32 µg/mL; Minimum Inhibitory Concentration (cutting oil emulsion, incubation 4 weeks, 28°, PF6): 32 µg/mL
CC[n+]1sccc1Cl [No. 18 (Table I), 3-Chloro-2-ethylisothiazolium ethylsulfate]	–	–	–	–	MIC [1]: 125 µg/mL; MIC [2]: 125 µg/mL; MIC [3]: 125 µg/mL; MIC [4]: 500 µg/mL
CCC[n+]1sccc1Cl [No. 20 (Table I)]	–	–	–	–	MIC [1]: 125 µg/mL; MIC [2]: 250 µg/mL; MIC [3]: 250 µg/mL; MIC [4]: 500 µg/mL
C[n+]1scc(Cl)c1Cl [No. 23 (Table I)]	–	–	–	–	Minimum Inhibitory Concentration (cutting oil emulsion, incubation 3 weeks, 28°, Cl, O3SOMe): 32 µg/mL; Minimum Inhibitory Concentration (cutting oil emulsion, incubation 4 weeks, 28°, Cl, O3SOMe): 32 µg/mL
CCOC(=O)c1s[n+](C)c(Cl)c1Cl [No. 24 (Table I), 3,4-Dichloro-2-methyl-5-ethoxycarbonylisothiazolium fluorosulfonate]	125	250	250	250	–
C[n+]1sc(C#N)c(Cl)c1Cl [No. 25 (Table I), 5-Cyano-3,4-dichloro-2-methylisothiazolium fluorosulfonate]	< 16	125	250	250	–
Cc1s[n+](C)c(Cl)c1Cl [No. 27 (Table I), 3,4-Dichloro-2,5-dimethylisothiazolium fluorosulfonate]	–	–	–	–	MIC [1]: 125 µg/mL; MIC [2]: 250 µg/mL; MIC [3]: 500 µg/mL; MIC [4]: 500 µg/mL

Now from value to compound, other results behind:

MIC [5] [µg/mL]	MIC [6] [µg/mL]	MIC [7] [µg/mL]	MIC [8] [µg/mL]	SMILES	further results
125	500	500	500	C[n+]1scc([N+](=O)[O-])c1Cl [No. 28 (Table I)]	–
125 (≈ 705 µM)	250 (≈ 1410 µM)	250 (≈ 1410 µM)	500 (≈ 2820 µM)	CCN1SC=CC1=C(C#N)C#N [drawing 12 CH2CH3, H, H]	–
250 (≈ 1180 µM)	500 (≈ 2360 µM)	500 (≈ 2360 µM)	1000 (≈ 4720 µM)	CC1=C(Cl)C(=C(C#N)C#N)N(C)S1 [drawing 12 CH3, Cl, CH3]	–
62 (≈ 278 µM)	250 (≈ 1120 µM)	250 (≈ 1120 µM)	250 (≈ 1120 µM)	CN1SC(C#N)=C(Cl)C1=C(C#N)C#N [drawing 12 CH3, Cl, CN]	–
125 (≈ 463 µM)	125 (≈ 463 µM)	125 (≈ 463 µM)	125 (≈ 463 µM)	CCOC(=O)C1=C(Cl)C(=C(C#N)C#N)N(C)S1 [drawing 12 CH3, Cl, COOEt, 4-Chloro-3-dicyanomethylene-5-ethoxycarbonyl-2-methyl-4-isothiazoline]	–
< 32	< 32	< 32	< 32	CN1SC=C(Cl)C1=C(C#N)C#N [drawing 12 CH3, Cl, H]	–
250 (≈ 1530 µM)	500 (≈ 3060 µM)	500 (≈ 3060 µM)	500 (≈ 3060 µM)	CN1SC=CC1=C(C#N)C#N [drawing 12 CH3, H, H]	–
